Patent publication US8329717B2, “Pyrimidine derivatives and their use for controlling undesired plant growth” (Bayer Cropscience AG, priority 2008, dated 2012)

How the values were obtained:
[1] = system: PHBPU; experiment: Post-emergence herbicidal effect; assay type: in vivo; conditions: Dosage 320 g/ha, one-leaf stage, visual scoring after ca. 3 weeks vs untreated controls, 100% = plants have died
Experimental: (§1) 2. Post-Emergence Herbicidal Effect and Crop Plant Compatibility Seeds of monocotyledonous or dicotyledonous weed plants or crop plants are planted in wood-fiber pots in sandy loam, covered with earth and grown in a greenhouse under good growth conditions. 2 to 3 weeks after sowing, the test plants are treated in the one-leaf stage. The compounds according to the invention, formulated in the form of wettable powders (WP) or as emulsion concentrates (EC), are then sprayed onto the green plant parts as aqueous suspension or emulsion at a water application rate of 600 to 800 l/ha (converted) with the addition of 0.2% of wetting agent. The dosage of the compounds according to the invention is given in grams per hectare. After ca. 3 weeks' standing time of the test plants in the greenhouse under optimum growth conditions, the effect of the preparations is scored visually in comparison with untreated controls (herbicidal effect in percent (%): 100% effect=plants have died, 0% effect=as control plants).

[2] = system: Echinochloa crus-galli; experiment: Post-emergence herbicidal effect; assay type: in vivo; conditions: Dosage 320 g/ha, one-leaf stage, visual scoring after ca. 3 weeks vs untreated controls, 100% = plants have died
Experimental: as §1, with “The following abbreviations are used in the tables below: [table] 2.” for “2.”

[3] = system: Polygonum convolvulus; experiment: Post-emergence herbicidal effect; assay type: in vivo; conditions: Dosage 320 g/ha, one-leaf stage, visual scoring after ca. 3 weeks vs untreated controls, 100% = plants have died
Experimental: as §1, with “The following abbreviations are used in the tables below: [table] 2.” for “2.”

[4] = system: Veronica persica; experiment: Post-emergence herbicidal effect; assay type: in vivo; conditions: Dosage 320 g/ha, one-leaf stage, visual scoring after ca. 3 weeks vs untreated controls, 100% = plants have died
Experimental: as §1, with “The following abbreviations are used in the tables below: [table] 2.” for “2.”

[5] = system: Abutilon theophrasti; experiment: Post-emergence herbicidal effect; assay type: in vivo; conditions: Dosage 320 g/ha, one-leaf stage, visual scoring after ca. 3 weeks vs untreated controls, 100% = plants have died
Experimental: as §1, with “The following abbreviations are used in the tables below: [table] 2.” for “2.”

[6] = system: Setaria viridis; experiment: Post-emergence herbicidal effect; assay type: in vivo; conditions: Dosage 320 g/ha, one-leaf stage, visual scoring after ca. 3 weeks vs untreated controls, 100% = plants have died
Experimental: as §1, with “The following abbreviations are used in the tables below: [table] 2.” for “2.”

[7] = system: Amaranthus retroflexus; experiment: Post-emergence herbicidal effect; assay type: in vivo; conditions: Dosage 320 g/ha, one-leaf stage, visual scoring after ca. 3 weeks vs untreated controls, 100% = plants have died
Experimental: as §1, with “The following abbreviations are used in the tables below: [table] 2.” for “2.”

[8] = system: Viola tricolor; experiment: Post-emergence herbicidal effect; assay type: in vivo; conditions: Dosage 320 g/ha, one-leaf stage, visual scoring after ca. 3 weeks vs untreated controls, 100% = plants have died
Experimental: as §1, with “The following abbreviations are used in the tables below: [table] 2.” for “2.”

[9] = system: Stellaria media; experiment: Post-emergence herbicidal effect; assay type: in vivo; conditions: Dosage 320 g/ha, one-leaf stage, visual scoring after ca. 3 weeks vs untreated controls, 100% = plants have died
Experimental: as §1, with “The following abbreviations are used in the tables below: [table] 2.” for “2.”

[10] = system: Lolium multiflorum; experiment: Post-emergence herbicidal effect; assay type: in vivo; conditions: Dosage 320 g/ha, one-leaf stage, visual scoring after ca. 3 weeks vs untreated controls, 100% = plants have died
Experimental: as §1, with “The following abbreviations are used in the tables below: [table] 2.” for “2.”

[11] = logp (HCOOH), chemicophysical data; conditions: HCOOH
[12] = system: Matricaria inodora; experiment: Post-emergence herbicidal effect; assay type: in vivo; conditions: Dosage 320 g/ha, one-leaf stage, visual scoring after ca. 3 weeks vs untreated controls, 100% = plants have died
Experimental: as §1, with “The following abbreviations are used in the tables below: [table] 2.” for “2.”

[13] = system: Alopecurus myosuroides; experiment: Post-emergence herbicidal effect; assay type: in vivo; conditions: Dosage 320 g/ha, one-leaf stage, visual scoring after ca. 3 weeks vs untreated controls, 100% = plants have died
Experimental: as §1, with “The following abbreviations are used in the tables below: [table] 2.” for “2.”

[14] = system: Echinochloa crus-galli; experiment: Pre-emergence herbicidal effect; assay type: in vivo; conditions: Dosage 320 g/ha, visual scoring after 3 weeks vs untreated controls, 100% = plants have died
From the text: (§2) 1. Pre-Emergence Herbicidal Effect and Crop Plant Compatibility Seeds of monocotyledonous or dicotyledonous weed plants or crop plants are planted in wood-fiber pots in sandy loam and covered with earth. The compounds according to the invention, formulated in the form of wettable powders (WP) or as emulsion concentrates (EC), are then applied as aqueous suspension or emulsion at a water application rate of 600 to 800 l/ha (converted) with the addition of 0.2% of wetting agent to the surface of the covering earth. The dosage of the compounds according to the invention is given in grams per hectare. Following the treatment, the pots are placed in a greenhouse and kept under good growth conditions for the test plants. The visual scoring of the damage on the test plants is carried out after an experiment time of 3 weeks in comparison with untreated controls (herbicidal effect in percent (%): 100% effect=plants have died, 0% effect=as control plants). The following abbreviations are used in the tables below: [table]

[15] = system: Veronica persica; experiment: Pre-emergence herbicidal effect; assay type: in vivo; conditions: Dosage 320 g/ha, visual scoring after 3 weeks vs untreated controls, 100% = plants have died
From the text: as §2

[16] = system: Setaria viridis; experiment: Pre-emergence herbicidal effect; assay type: in vivo; conditions: Dosage 320 g/ha, visual scoring after 3 weeks vs untreated controls, 100% = plants have died
From the text: as §2

[17] = system: Amaranthus retroflexus; experiment: Pre-emergence herbicidal effect; assay type: in vivo; conditions: Dosage 320 g/ha, visual scoring after 3 weeks vs untreated controls, 100% = plants have died
From the text: as §2

[18] = system: Alopecurus myosuroides; experiment: Pre-emergence herbicidal effect; assay type: in vivo; conditions: Dosage 320 g/ha, visual scoring after 3 weeks vs untreated controls, 100% = plants have died
From the text: as §2

[19] = system: Matricaria inodora; experiment: Pre-emergence herbicidal effect; assay type: in vivo; conditions: Dosage 320 g/ha, visual scoring after 3 weeks vs untreated controls, 100% = plants have died
From the text: as §2

[20] = system: Viola tricolor; experiment: Pre-emergence herbicidal effect; assay type: in vivo; conditions: Dosage 320 g/ha, visual scoring after 3 weeks vs untreated controls, 100% = plants have died
From the text: as §2

[21] = system: Cyperus esculentus; experiment: Pre-emergence herbicidal effect; assay type: in vivo; conditions: Dosage 320 g/ha, visual scoring after 3 weeks vs untreated controls, 100% = plants have died
From the text: as §2

[22] = system: Stellaria media; experiment: Pre-emergence herbicidal effect; assay type: in vivo; conditions: Dosage 320 g/ha, visual scoring after 3 weeks vs untreated controls, 100% = plants have died
From the text: as §2

[23] = system: Lolium multiflorum; experiment: Pre-emergence herbicidal effect; assay type: in vivo; conditions: Dosage 320 g/ha, visual scoring after 3 weeks vs untreated controls, 100% = plants have died
From the text: as §2

SMILES | Post-emergence herbicidal effect ECHCG [2] [%] | Post-emergence herbicidal effect POLCO [3] [%] | Post-emergence herbicidal effect VERPE [4] [%] | Post-emergence herbicidal effect ABUTH [5] [%] | Post-emergence herbicidal effect AMARE [7] [%] | Post-emergence herbicidal effect VIOTR [8] [%] | Post-emergence herbicidal effect STEME [9] [%] | Post-emergence herbicidal effect LOLMU [10] [%] | logp (HCOOH) [11] | also measured
Cc1nc(NC2c3ccccc3CC2C)nc(N)c1C#N (racemic) [Example 1.23] | 100 | 100 | 90 | 80 | 80 | 90 | 90 | 90 | solid; logp (HCOOH): 1.99; 1H-NMR (CDCl3, 400 MHZ, δ in ppm): 1.25 (d, 3H, CH3); | Post-emergence herbicidal effect PHBPU [1]: 80%; Post-emergence herbicidal effect SETVI [6]: 90%
Cc1nc(NC2CCc3ccccc32)nc(N)c1C#N (racemic) [Example 1.24] | 90 | – | 90 | – | – | – | 100 | 100 | – | Post-emergence herbicidal effect MATIN [12]: 80%
Cc1nc(NC2CCOc3ccccc32)nc(N)c1C#N (racemic) [Example 1.25] | 90 | – | 95 | – | 90 | – | 100 | 95 | solid, m.p.: 213.3° C.; logp (HCOOH): 1.55; 1H-NMR (CDCl3, 400 MHZ, δ in ppm): 2.10 | Post-emergence herbicidal effect ALOMY [13]: 90%; Pre-emergence herbicidal effect ECHCG [14]: 100%; Pre-emergence herbicidal effect VERPE [15]: 100%; Pre-emergence herbicidal effect SETVI [16]: 100%; Pre-emergence herbicidal effect AMARE [17]: 100%; Pre-emergence herbicidal effect ALOMY [18]: 100%; Pre-emergence herbicidal effect MATIN [19]: 100%; Pre-emergence herbicidal effect VIOTR [20]: 90%; Pre-emergence herbicidal effect CYPES [21]: 100%; Pre-emergence herbicidal effect STEME [22]: 100%; Pre-emergence herbicidal effect LOLMU [23]: 100%
Cc1nc(NC2CCc3ccc(C(C)C)cc32)nc(N)c1C#N (racemic) [Example 1.28] | 90 | 90 | 90 | 90 | 90 | 90 | – | – | wax-like; logp (HCOOH): 2.68; 1H-NMR (CDCl3, 400 MHZ, δ in ppm): 1.20 (d, 6H, CH3); | –
